The source of these data is PMC3578862, “Single Residue Mutation in Active Site of Serine Acetyltransferase Isoform 3 from Entamoeba histolytica Assists in Partial Regaining of Feedback Inhibition by Cysteine” (PLoS ONE, 2013).

The target in series [1] is T1, Serine acetyltransferase isoform 3 (EhSAT3) (Entamoeba histolytica, UniProt Q401L4, S208H).
T1 construct: gene SAT 3
The series is described as follows: SAT activity assay at […] nm, […] serine; […] inhibition at […]. It is filed as biochemical.

The target of series [2] is T2, Serine acetyltransferase isoform 1 (EhSAT1) (Entamoeba histolytica, UniProt Q9U8X2, H208S).
T2 construct: gene EhSAT
The series is described as follows: SAT activity assay at […] nm, […] serine. It is filed as biochemical.

The subject of another series is N[C@@H](CO)C(=O)O. The series is described as follows: purified protein. It is filed as biochemical, Entamoeba histolytica. Particulars: acetyl coenzyme A active site.

For `N[C@@H](CS)C(=O)O` [L-cysteine], the IC50 (usually the midpoint of a concentration-inhibition curve) in series [1] turned out to be 3500 µM; in series [2], 170 µM.

Regarding “Serine acetyltransferase isoform 1 (EhSAT1) (Entamoeba histolytica; H208S)”, the Michaelis constant (Km) – broadly, the substrate concentration at which the rate is half of its maximum – in the series on N[C@@H](CO)C(=O)O is 68.4 µM.

Regarding “Serine acetyltransferase isoform 3 (EhSAT3) (Entamoeba histolytica; S208H)”, in the series with N[C@@H](CO)C(=O)O, the Km is 185.5 µM.
